Results on four compounds are retold here after patent publication US6790843B1, “C-19-halogen-substituted steroids of the androst-9(11)-ene-series, methods for the production and use thereof” (Schering AG, priority 1999, dated 2004).

SMILES strings stand for the structures.

For data set [1], the target named is T1, human androgen receptor (Homo sapiens, UniProt P10275).
T1 sequence (P10275 1-920): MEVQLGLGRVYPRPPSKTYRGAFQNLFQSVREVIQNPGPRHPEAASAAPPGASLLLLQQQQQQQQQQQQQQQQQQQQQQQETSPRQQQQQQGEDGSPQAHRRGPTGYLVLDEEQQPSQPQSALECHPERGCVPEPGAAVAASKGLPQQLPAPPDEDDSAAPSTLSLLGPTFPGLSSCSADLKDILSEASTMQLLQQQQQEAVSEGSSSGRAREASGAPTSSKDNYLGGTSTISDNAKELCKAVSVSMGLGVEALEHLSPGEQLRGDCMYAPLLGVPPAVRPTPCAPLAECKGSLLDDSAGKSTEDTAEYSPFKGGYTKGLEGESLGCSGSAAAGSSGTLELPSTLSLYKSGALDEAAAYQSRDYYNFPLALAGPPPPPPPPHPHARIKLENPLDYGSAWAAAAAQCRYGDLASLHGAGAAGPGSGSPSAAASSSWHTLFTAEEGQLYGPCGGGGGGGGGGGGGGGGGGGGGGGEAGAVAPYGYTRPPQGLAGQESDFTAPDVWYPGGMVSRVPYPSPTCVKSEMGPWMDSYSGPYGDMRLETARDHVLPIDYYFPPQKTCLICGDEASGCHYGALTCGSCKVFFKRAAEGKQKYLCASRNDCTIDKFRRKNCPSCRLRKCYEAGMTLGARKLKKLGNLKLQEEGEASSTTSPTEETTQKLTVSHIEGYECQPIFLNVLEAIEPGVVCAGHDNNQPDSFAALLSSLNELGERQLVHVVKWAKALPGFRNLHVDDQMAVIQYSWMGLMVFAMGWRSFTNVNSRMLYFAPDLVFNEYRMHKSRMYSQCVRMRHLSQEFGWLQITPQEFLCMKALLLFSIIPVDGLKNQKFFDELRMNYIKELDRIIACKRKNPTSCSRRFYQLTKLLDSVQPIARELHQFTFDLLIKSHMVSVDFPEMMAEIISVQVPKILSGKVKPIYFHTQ
As to the kind of experiment: binding affinity to the androgen receptor (reference standard 3H-methyltrienolone R 1881).

One may read the melting point as the temperature of the solid-liquid transition. In turn, `CCCCCCCSCC[C@]12CC[C@@H]3C(=CC[C@]4(C)[C@@H](O)CC[C@@H]34)[C@@]1(C)CC[C@H](O)C2` yielded a melting point of 126 °C. On the same count and under the same terms, with `CCn1ccnc1SCC[C@]12CC[C@@H]3C(=CC[C@]4(C)[C@@H](O)CC[C@@H]34)[C@@]1(C)CC[C@H](O)C2` the figure was 212 °C. As to `C[C@]12CC=C3[C@@H](CCC4=CC(=O)CC[C@@]43CBr)[C@@H]1CC[C@@H]2O` [Example 2, 19-Bromo-17β-hydroxy-androsta-4,9(11)-dien-3-one], the melting point is 149 °C (dec.). Also, in data set [1], the “affinity to the androgen receptor (in words)” value is “high affinity”.

A word on the IC50: it is the concentration at which inhibition is half-maximal. The low end stands for greater potency, the high end for weaker potency. With `C[C@]12CC=C3[C@@H](CCC4=CC(=O)CC[C@@]43CI)[C@@H]1CC[C@@H]2O` [iodide 6, 17β-Hydroxy-19-iodo-androsta-4,9(11)-dien-3-one], in data set [1], the IC50 worked out at 57 nM and the “affinity to the androgen receptor (in words)” value is “high affinity”.
